How the values were obtained:
FGFR3 = FGFR3 (Homo sapiens (Human), UniProt P22607); experiment: Kinase profiling; type: biochemical; details: 10 μM ATP
HFL = experiment: Viable cell count GI50 (Table 4); type: cell-based, human; details: Normal, 96 h continuous treatment, trypan blue
Method: (§1) Cells (1×10^5) were plated into 6-well dishes and 24 h later test compound was added at five different concentrations over a 2 log dilution (1-100 μM). The total number of viable cells was determined after 96 h of continuous treatment by staining with trypan blue and counting the number of non-staining cells (viable) remaining in each well using a hemacytometer. The percentage of viable cells remaining was calculated as follows: # viable cells (compound treated)/# viable cells (DMSO treated)*100.

PLK2 [1] = target: T1, PLK2 (Homo sapiens (Human), UniProt Q9NYY3); experiment: Affinity analysis with biotinylated compound, streptavidin pull-down from U2OS lysates, anti-Plk2 Western blot; type: binding; details: FIG. 2
T1 sequence (Q9NYY3 whole entry): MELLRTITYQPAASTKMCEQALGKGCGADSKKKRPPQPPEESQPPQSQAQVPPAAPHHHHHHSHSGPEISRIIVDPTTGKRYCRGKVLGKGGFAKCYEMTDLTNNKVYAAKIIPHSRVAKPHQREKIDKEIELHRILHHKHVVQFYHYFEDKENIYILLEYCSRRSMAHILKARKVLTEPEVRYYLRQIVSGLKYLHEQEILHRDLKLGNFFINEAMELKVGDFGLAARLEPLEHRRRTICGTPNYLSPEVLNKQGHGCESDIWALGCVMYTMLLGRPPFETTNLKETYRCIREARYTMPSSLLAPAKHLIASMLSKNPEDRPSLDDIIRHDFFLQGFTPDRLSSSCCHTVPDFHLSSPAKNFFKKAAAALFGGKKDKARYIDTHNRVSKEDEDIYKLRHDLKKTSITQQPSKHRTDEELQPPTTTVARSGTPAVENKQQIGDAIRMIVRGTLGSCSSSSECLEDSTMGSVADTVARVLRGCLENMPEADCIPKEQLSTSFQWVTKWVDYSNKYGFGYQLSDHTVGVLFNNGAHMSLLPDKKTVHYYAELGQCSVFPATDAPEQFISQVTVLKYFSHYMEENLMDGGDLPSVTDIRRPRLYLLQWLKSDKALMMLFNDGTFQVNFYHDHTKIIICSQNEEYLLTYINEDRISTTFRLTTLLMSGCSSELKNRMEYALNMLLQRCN
Method: Increasing concentrations of a biotinylated form of the compound were incubated with U2OS lysates. Streptavidin-conjugated agarose beads were utilized to pull down the biotinylated compound in complex with its interacting proteins.
Increasing concentrations of a biotinylated form of the compound were incubated for two hours with U2OS lysates (0.6 mg/ml) derived from the U2OS cell line. Streptavidin-conjugated agarose beads were utilized to pull down the biotinylated compound in complex with its interacting proteins. Pre-cleared streptavidin beads were added to each reaction mixture and incubated overnight at 4° C. The beads were washed and blotted with SDS-PAGE loading buffer and run on a 10% acrylamide denaturing gel. […] Western blotting was performed using an anti-Plk2 antibody.

U2OS = experiment: Viable cell count GI50 (Table 4); type: cell-based; details: Osteosarcoma, 96 h continuous treatment, trypan blue
Method: as §1

U87 = experiment: Viable cell count GI50 (Table 4); type: cell-based; details: U87, Glioblastoma; 96 h continuous treatment, trypan blue
Method: as §1

HELA = experiment: Viable cell count GI50 (Table 4); type: cell-based; details: Cervical, 96 h continuous treatment, trypan blue
Method: as §1

BT474 = experiment: Viable cell count GI50 (Table 4); type: cell-based; details: BT474, Breast (Erbb2+); 96 h continuous treatment, trypan blue
Method: as §1

RAJI = experiment: Viable cell count GI50 (Table 4); type: cell-based; details: B-Cell, 96 h continuous treatment, trypan blue
Method: as §1

GRANTA-519 = experiment: Viable cell count GI50 (Table 4); type: cell-based; details: GRANTA-519, Mantle Cell Lymphoma; 96 h continuous treatment, trypan blue
Method: as §1

SK-MEL-28 = experiment: Viable cell count GI50 (Table 4); type: cell-based; details: SK-MEL-28, Melanoma; 96 h continuous treatment, trypan blue
Method: as §1

recombinant Plk1 = recombinant Plk1 (Homo sapiens (Human), UniProt P53350)
Chain of recombinant Plk1 (P53350 whole entry): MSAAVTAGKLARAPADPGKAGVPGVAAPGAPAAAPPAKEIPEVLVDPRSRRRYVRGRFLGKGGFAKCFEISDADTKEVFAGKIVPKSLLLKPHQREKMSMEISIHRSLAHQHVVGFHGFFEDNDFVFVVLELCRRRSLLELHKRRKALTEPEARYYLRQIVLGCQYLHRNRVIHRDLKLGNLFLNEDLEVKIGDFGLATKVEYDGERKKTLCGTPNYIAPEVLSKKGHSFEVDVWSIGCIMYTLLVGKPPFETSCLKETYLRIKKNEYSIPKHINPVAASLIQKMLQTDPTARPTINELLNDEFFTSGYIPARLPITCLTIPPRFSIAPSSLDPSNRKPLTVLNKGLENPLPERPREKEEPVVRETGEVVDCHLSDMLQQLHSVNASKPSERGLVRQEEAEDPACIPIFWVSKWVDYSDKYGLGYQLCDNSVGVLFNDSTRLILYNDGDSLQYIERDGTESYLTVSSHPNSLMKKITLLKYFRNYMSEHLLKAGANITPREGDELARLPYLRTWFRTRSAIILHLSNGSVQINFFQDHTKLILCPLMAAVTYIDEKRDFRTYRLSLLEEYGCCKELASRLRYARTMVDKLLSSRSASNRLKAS

PLK2 [2] = target: T1, PLK2; experiment: Kinase profiling; type: biochemical; details: 10 μM ATP
U2OS osteosarcoma cells [3] = experiment: Spindle staining of U2OS cells (anti-alpha tubulin, fluorescent microscopy); type: cell-based; details: 1 uM, 24 hrs
Method: The cells were fixed in 4% paraformaldehyde and stained with anti-alpha tubulin antibodies conjugated with FITC followed by 5 μg/ml […] staining. The coverslips were visualized by fluorescent microscopy using an Olympus microscope at 100× magnification equipped with the Insight digital camera system.

U2OS osteosarcoma cells [4] = experiment: Induction of apoptosis in U2OS cells (Caspase Glo, Cell Titer Blue); type: cell-based; details: 24 hours, FIG. 3
Method: U2OS cells were treated with increasing concentrations of the compound for 24 hours. Cell viability was measured by incubating cells with Cell Titer Blue reagent at 37° C. for 3 hours under 5% CO2. Thereafter the cells were incubated with Caspase Glo reagent for 1 hour at room temperature to assay induction of Caspase 3/7 activity.
Cell viability was measured by incubating cells with Cell Titer Blue reagent (Promega) at 37° C. for 3 hours under 5% CO2. Thereafter the cells were incubated with Caspase Glo reagent (Promega) for 1 hour at room temperature to assay induction of Caspase 3/7 activity.

CD-1 female mice = experiment: Toxicity study in mice; type: in vivo
Method: . DMSO was used as a placebo. Three CD-1 female mice were used per group. Drugs were administered intraperitoneally at 100 mg/kg. Viability, signs of toxicity and body weight were monitored over the next 7 days. […]. […] Comparative body weight studies could not be carried out for this compound due to the early death of animals. These observations agree with the known toxicity of BI-2536. […]. Following this treatment, 100% survival for >10 days after injection was observed. […]

tumor cells = experiment: Apoptosis induction in tumor cells; type: cell-based
RSK1 = RSK1 (Homo sapiens (Human), UniProt Q15418); experiment: biochemical
Chain of RSK1 (Q15418 whole entry): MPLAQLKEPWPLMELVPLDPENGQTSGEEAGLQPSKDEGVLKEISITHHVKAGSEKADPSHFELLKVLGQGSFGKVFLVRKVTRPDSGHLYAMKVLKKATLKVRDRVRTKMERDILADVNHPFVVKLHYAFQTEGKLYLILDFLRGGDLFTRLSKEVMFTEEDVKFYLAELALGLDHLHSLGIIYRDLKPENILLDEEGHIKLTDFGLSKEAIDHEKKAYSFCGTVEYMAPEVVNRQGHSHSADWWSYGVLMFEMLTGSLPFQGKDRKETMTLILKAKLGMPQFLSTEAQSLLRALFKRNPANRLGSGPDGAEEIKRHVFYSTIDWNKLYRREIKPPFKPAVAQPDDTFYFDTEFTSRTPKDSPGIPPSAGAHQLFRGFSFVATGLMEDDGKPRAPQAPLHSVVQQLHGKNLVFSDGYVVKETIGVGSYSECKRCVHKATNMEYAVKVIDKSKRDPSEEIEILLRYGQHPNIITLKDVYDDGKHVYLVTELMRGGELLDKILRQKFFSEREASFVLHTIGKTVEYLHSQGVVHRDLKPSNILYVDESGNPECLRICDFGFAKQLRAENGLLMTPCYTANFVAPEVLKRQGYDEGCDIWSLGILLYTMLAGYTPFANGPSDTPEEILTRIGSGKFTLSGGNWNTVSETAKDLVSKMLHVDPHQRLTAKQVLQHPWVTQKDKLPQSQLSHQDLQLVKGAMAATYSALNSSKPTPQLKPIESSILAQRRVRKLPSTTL

FLT3 (D835Y) = FLT3 (D835Y) (Homo sapiens (Human), UniProt P36888, D835Y); experiment: Kinase profiling; type: biochemical; details: 10 μM ATP
recombinant Plk3 = recombinant Plk3 (Homo sapiens (Human), UniProt Q9H4B4); experiment: Plk kinase inhibition assay (32P-ATP, casein); type: biochemical; details: 5 μM ATP, FIG. 1
Chain of recombinant Plk3 (Q9H4B4 whole entry): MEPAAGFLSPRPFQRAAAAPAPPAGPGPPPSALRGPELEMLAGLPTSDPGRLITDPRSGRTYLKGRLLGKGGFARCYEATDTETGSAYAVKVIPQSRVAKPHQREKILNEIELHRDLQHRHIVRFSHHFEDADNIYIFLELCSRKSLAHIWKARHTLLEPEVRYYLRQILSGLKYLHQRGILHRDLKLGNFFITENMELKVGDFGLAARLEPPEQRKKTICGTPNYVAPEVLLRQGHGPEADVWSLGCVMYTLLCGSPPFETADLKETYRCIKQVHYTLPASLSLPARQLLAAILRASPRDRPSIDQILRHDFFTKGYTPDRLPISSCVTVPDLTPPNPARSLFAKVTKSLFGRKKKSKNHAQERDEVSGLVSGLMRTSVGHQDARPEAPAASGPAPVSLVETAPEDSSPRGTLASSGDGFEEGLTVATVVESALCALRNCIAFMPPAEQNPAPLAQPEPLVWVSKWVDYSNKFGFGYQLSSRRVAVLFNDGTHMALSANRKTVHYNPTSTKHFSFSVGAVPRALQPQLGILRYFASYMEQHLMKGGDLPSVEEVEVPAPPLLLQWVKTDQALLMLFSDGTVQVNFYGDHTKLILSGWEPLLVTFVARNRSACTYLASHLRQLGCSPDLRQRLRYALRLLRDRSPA
Method: (§2) Ten ng of recombinant Plk1, Plk2, Plk3 or Plk4 kinase were incubated with the indicated concentrations of compound for 30 minutes at room temperature. Kinase reactions were started by the addition of substrate mix (5 μM ATP, 10 μCi γ^32P-ATP, 1 μg α-casein, 10 mM MgCl2) for 15 minutes at 30° C. Reactions were stopped by 3% phosphoric acid, spotted on PE30 filtermat, washed, dried and subjected to scintillation counting. Data is plotted (after background subtraction) using GraphPad Prism4 software as a non-linear regression plot with variable slope to obtain IC50 values.
(§3) Kinase reactions were started by the addition of substrate mix (5 μM ATP, 10 μCi γ^32P-ATP, 1 μg α-casein, 10 mM MgCl2) for 15 minutes at 30° C. Reactions were stopped by 3% phosphoric acid, spotted on PE30 filtermat, washed, dried and subjected to scintillation counting. Data is plotted (after background subtraction) using GraphPad Prism4 software as a non-linear regression plot with variable slope to obtain IC50 values.

PLK2 [5] = target: T1, PLK2; experiment: Plk kinase inhibition assay (32P-ATP, casein); type: biochemical; details: 5 μM ATP, FIG. 1
Method: as §2, §3

recombinant Plk4 = recombinant Plk4 (Homo sapiens (Human), UniProt O00444); experiment: Plk kinase inhibition assay (32P-ATP, casein); type: biochemical
Chain of recombinant Plk4 (O00444 whole entry): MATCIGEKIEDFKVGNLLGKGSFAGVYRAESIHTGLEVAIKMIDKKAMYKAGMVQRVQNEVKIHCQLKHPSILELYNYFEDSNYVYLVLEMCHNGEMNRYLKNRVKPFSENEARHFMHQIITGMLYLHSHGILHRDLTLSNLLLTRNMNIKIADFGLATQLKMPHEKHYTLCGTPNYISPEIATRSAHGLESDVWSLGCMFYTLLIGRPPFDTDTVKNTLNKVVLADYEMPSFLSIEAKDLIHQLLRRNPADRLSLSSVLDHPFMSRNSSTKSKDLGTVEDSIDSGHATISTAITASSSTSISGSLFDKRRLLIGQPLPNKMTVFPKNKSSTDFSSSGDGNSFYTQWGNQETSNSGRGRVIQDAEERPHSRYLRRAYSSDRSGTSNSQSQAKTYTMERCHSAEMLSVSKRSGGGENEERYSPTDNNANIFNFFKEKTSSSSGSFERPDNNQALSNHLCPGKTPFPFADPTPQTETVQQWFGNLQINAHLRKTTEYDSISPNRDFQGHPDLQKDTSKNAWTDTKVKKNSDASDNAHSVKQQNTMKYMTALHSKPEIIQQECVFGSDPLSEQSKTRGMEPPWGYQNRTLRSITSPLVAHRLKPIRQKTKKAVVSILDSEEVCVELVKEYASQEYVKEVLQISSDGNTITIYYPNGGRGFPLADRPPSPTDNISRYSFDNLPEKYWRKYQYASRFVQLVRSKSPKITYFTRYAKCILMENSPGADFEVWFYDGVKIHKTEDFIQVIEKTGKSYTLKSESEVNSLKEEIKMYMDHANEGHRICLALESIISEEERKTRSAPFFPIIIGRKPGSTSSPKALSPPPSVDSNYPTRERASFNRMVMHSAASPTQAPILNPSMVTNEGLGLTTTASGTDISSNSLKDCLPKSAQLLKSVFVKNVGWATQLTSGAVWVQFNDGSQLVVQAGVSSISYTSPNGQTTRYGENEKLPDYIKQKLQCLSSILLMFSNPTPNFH
Method: as §2, §3

[6] = 100 mg/kg intraperitoneally, monitored over 7 days

Chain of FGFR3 (P22607 23-806): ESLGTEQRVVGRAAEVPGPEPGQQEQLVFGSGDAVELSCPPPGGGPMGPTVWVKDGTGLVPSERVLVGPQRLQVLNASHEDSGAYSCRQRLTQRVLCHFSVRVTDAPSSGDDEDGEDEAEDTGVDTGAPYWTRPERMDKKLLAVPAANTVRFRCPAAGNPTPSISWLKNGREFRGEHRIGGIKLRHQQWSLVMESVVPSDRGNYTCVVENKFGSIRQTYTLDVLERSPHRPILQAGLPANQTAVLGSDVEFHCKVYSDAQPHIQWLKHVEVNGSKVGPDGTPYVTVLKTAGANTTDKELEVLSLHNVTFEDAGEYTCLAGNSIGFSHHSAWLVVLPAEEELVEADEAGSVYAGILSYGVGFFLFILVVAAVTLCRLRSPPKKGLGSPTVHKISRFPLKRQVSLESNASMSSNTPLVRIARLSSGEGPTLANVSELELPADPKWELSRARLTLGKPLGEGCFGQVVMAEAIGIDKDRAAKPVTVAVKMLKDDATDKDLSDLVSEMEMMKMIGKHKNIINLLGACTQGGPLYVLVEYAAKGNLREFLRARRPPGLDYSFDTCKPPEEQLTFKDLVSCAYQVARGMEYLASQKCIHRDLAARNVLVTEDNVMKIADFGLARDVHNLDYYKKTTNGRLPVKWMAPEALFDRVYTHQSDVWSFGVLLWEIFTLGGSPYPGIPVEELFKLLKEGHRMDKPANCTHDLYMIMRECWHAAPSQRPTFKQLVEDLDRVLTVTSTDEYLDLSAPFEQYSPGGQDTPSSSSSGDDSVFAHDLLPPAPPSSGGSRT

## Cn1c(=O)c(S(=O)(=O)c2ccc(F)cc2F)cc2cnc(Nc3ccc4[nH]ccc4c3)nc21 [Example 39, 2-(1H-indol-5-ylamino)-6-(2,4-difluorophenylsulfonyl)-8-methylpyrido[2,3-d]pyrimidin-7(8H)-one]
FGFR3
  IC50: 9000 nM
HFL
  GI50: > 5000 nM
PLK2 [1]
  competition of Plk2 / compound-biotin interaction by free compound: readily competed out
U2OS
  GI50: 50 nM
U87
  GI50: 200 nM
HELA
  GI50: 50 nM
BT474
  GI50: 100 nM
RAJI
  GI50: 50 nM
GRANTA-519
  GI50: 40 nM
SK-MEL-28
  GI50: 200 nM
Recombinant Plk1
  inhibitory activity against PLK-1: little or no inhibitory activity
PLK2 [2]
  IC50: 201 nM
U2OS osteosarcoma cells [3]
  treated cells mitotically arrested with multipolar spindles: greater than 95%
U2OS osteosarcoma cells [4]; Cell Titer Blue
  cell viability: dose-dependent decrease in cell viability
U2OS osteosarcoma cells [4]
  induction of apoptosis: induces apoptosis of U2OS osteosarcoma cells in a dose-dependent fashion
CD-1 female mice; [6]
  signs of toxicity: No signs of toxicity
  survival of mice: 100%
  weight loss: No weight loss
CD-1 female mice; 200 mg/kg, for >10 days after injection
  survival of mice: 100%
Tumor cells
  concentration inducing apoptosis in tumor cells: approximately 100 nM
RSK1
  IC50: 4250 nM
FLT3 (D835Y)
  IC50: 8850 nM
Recombinant Plk3
  inhibitory activity against PLK-3: little or no inhibitory activity
PLK2 [5]
  inhibitory activity against PLK-2: potent inhibitor
Recombinant Plk4
  inhibitory activity against PLK-4: little or no inhibitory activity

— US8889696B2, “Substituted pyrido[2,3-d]pyrimidin-7(8H)-ones and therapeutic uses thereof” (Temple University—Of The Commonwealth System Of Higher …, priority 2009, dated 2014)
